The text below walks through data of patent US8293269B2, “Compositions for promoting sleep” (Taiyo Kagaku Co., Ltd., priority 2000, dated 2012).

The subject of the series is mice. Briefly: acute toxic test using mice. The note with it: administered orally at 5 g/kg. Format: in vivo. The source says:
The safety of the theanine used in the present invention is high. […] In addition, especially L-theanine is known as the main component of deliciousness (umami) of tea, and is also used as a food additive for the use of deliciousness, and there is no limitation in its amount according to the Japanese Food Sanitation Act. Moreover, contrary to the conventional medicament for ameliorating sleep disorders, since dependence on the theanine is not found at all, the sleep can be promoted safely and effectively by the use of the composition, food or medicament of the present invention, whereby moderating or ameliorating the sleep disorders.

The structures appear in SMILES notation.

In the case of `CCNC(=O)CC[C@H](N)C(=O)O` [theanine, γ-glutamylethylamide], the “abnormality in the general state and body weight” value was “no abnormality”; the death cases result was “no death cases”.
